These results are taken from patent US20080132505A1 (Glaxo Group Limited, priority 2004, published 2008).

This test has as its target human cannabinoid CB2 receptor (Homo sapiens, UniProt P34972). Nature of the test: Cannabinoid CB2 receptor agonist activity (yeast reporter assay, FDGlu fluorescence). Format: cell-based. Particulars: for EC50: EC50 value at the cloned human cannabinoid CB2 receptor; for Emax: read-out: efficacy value (Emax relative to HU210) at the cloned human cannabinoid CB2 receptor. On the procedure: Determination of Cannabinoid CB2 Receptor Agonist Activity
The cannabinoid CB2 receptor agonist activity of the compounds of formula (I)-(IV) was determined in accordance with the following experimental method.
Yeast (Saccharomyces cerevisiae) cells expressing the human cannabinoid CB2 receptor were generated by integration of an expression cassette into the ura3 chromosomal locus of yeast strain MMY23. This cassette consisted of DNA sequence encoding the human CB2 receptor flanked by the yeast GPD promoter to the 5′ end of CB2 and a yeast transcriptional terminator sequence to the 3′ end of CB2. MMY23 expresses a yeast/mammalian chimeric G-protein alpha subunit in which the C-terminal 5 amino acids of Gpa1 are replaced with the C-terminal 5 amino acids of human Gαi3 (as described in Brown et al. (2000), Yeast 16:11-22). Cells were grown at 30° C. in liquid Synthetic Complete (SC) yeast media (Guthrie and Fink (1991), Methods in Enzymology, Vol. 194) lacking uracil, tryptophan, adenine and leucine to late logarithmic phase (approximately 6 OD600/ml).
Agonists were prepared as 10 mM stocks in DMSO. […] Agonist solutions in DMSO (1% final assay volume) were transferred into black, clear bottom, microtitre plates from NUNC (96- or 384-well). Cells were suspended at a density of 0.2 OD600/ml in SC media lacking histidine, uracil, tryptophan, adenine and leucine and supplemented with 10 mM 3-aminotriazole, 0.1M sodium phosphate pH 7.0, and […] fluorescein di-β-D-glucopyranoside (FDGlu). This mixture (50 ul per well for 384-well plates, 200 ul per well for 96-well plates) was added to agonist in the assay plates (Multidrop 384, Labsystems). After incubation at 30° C. for 24 hours, fluorescence resulting from degradation of FDGlu to fluorescein due to exoglucanase, an endogenous yeast enzyme produced during agonist-stimulated cell growth, was determined using a Spectrofluor microtitre plate reader (Tecan; excitation wavelength: 485 nm; emission wavelength: 535 nm). Fluorescence was plotted against compound concentration and iteratively curve fitted using a four parameter fit to generate a concentration effect value. Efficacy (Emax) was calculated from the equation
where Max[compound X] and Min[compound X] are the fitted maximum and minimum respectively from the concentration effect curve for compound X, and Max[HU210] and Min[HU210] are the fitted maximum and minimum respectively from the concentration effect curve for (6aR,10aR)-3-(1,1′-Dimethylheptyl)-6a,7,10,10a-tetrahydro-1-hydroxy-6,6-dimethyl-6H-dibenzo[b,d]pyran-9-methanol (HU210; available from Tocris). Equieffective molar ratio (EMR) values were calculated from the equation
Where EC50 [compound X] is the EC50 of compound X and EC50 [HU210] is the EC50 of HU210.

Sequence of human cannabinoid CB2 receptor (P34972 whole entry): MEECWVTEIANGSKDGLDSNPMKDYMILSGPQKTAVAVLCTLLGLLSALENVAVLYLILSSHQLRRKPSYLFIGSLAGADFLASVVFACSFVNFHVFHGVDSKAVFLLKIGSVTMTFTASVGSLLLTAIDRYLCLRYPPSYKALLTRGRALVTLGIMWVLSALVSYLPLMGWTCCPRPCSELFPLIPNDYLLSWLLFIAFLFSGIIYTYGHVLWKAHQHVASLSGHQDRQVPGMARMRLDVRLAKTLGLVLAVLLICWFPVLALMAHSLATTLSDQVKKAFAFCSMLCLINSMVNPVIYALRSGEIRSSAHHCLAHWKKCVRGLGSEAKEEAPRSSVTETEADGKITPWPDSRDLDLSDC

As for `O=C(NCC1CCOCC1)c1cnc(Nc2ccc(F)c(Cl)c2)nc1C(F)(F)F` [Example 215, 2-(4-Fluoro-3-chloro-phenylamino)-4-trifluoromethyl-pyrimidine-5-carboxylic acid (tetrahydro-pyran-4-ylmethyl)-amide], the EC50 fell in the range of 20 to 300 nM and the Emax is above 50%.

Consider `O=C(NCc1ccc(F)cc1)c1cnc(Nc2ccc(F)c(Cl)c2)nc1C(F)(F)F` [Example 347, 2-(3-Chloro-4-fluoro-phenylamino)-4-trifluoromethyl-pyrimidine-5-carboxylic acid 4-fluoro-benzylamide], for which the half-maximal effective concentration (EC50) fell in the range of 20 to 300 nM.

The compound `O=C(NCc1ccnc(F)c1)c1cnc(Nc2cc(Cl)cc(Cl)c2)nc1C(F)(F)F` [Example 356, 2-(3,5-Dichloro-phenylamino)-4-trifluoromethyl-pyrimidine-5-carboxylic acid (2-fluoro-pyridin-4-ylmethyl)-amide] yielded an EC50 of 20 to 300 nM.

Turning to `O=C(NCC1CCC1)c1cnc(Nc2ccc(Br)cc2Cl)nc1C(F)(F)F` [Example 227, 2-(2-Chloro-4-bromo-phenylamino)-4-trifluoromethyl-pyrimidine-5-carboxylic acid cyclobutylmethyl-amide], the EC50 was in the range of 20 to 300 nM and the Emax is above 50%.

`O=C(NCc1ccccc1)c1cnc(Nc2cccc(Br)c2)nc1C(F)(F)F` [Example 278, 2-(3-Bromophenylamino)-4-trifluoromethylpyrimidine-5-carboxylic acid benzyl-amide]: the EC50 lay in the range of 20 to 300 nM and the Emax was above 50%.

As to `O=C(NCc1ccccc1)c1cnc(Nc2c(Cl)cccc2Cl)nc1C(F)(F)F` [Example 363, 2-(2,6-Dichloro-phenylamino)-4-trifluoromethyl-pyrimidine-5-carboxylic acid benzylamide], the concentration for a half-maximal effect (EC50) is 20 to 300 nM.

With `CN(Cc1ccccc1)C(=O)c1cnc(Nc2ccccc2Cl)nc1C(F)(F)F` [Example 305, 2-(2-Chloro-phenylamino)-4-trifluoromethyl-pyrimidine-5-carboxylic acid N-benzyl-N-methyl-amide], the EC50 is 300 to 1000 nM.

Regarding `O=C(NCC1(O)CCCCC1)c1cnc(Nc2cccc(Br)c2)nc1C(F)(F)F` [Example 165, 2-(3-Bromophenylamino)-4-trifluoromethyl-pyrimidine-5-carboxylic acid (1-hydroxycyclohexylmethyl)-amide], the EC50 lay in the range of 20 to 300 nM and the maximum response (Emax) is above 50%.

`COc1cccc(Nc2ncc(C(=O)NCc3ccncc3)c(C(F)(F)F)n2)c1` [Example 352, 2-(3-Methoxy-phenylamino)-4-trifluoromethyl-pyrimidine-5-carboxylic acid (pyridin-4-ylmethyl)-amide] had an EC50 of 20 to 300 nM.

As to `O=C(NCC1CCC1)c1cnc(Nc2ccc(OC(F)(F)F)c(Cl)c2)nc1C(F)(F)F` [Example 193, 2-(3-Chloro-4-trifluoromethoxyphenylamino)-4-trifluoromethyl-pyrimidine-5-carboxylic acid cyclobutylmethyl-amide], the EC50 was in the range of 20 to 300 nM and the Emax was above 50%.

Turning to `O=C(NCC1CCCCC1)c1cnc(Nc2cc(F)cc(F)c2)nc1C(F)(F)F` [Example 169, 2-(3,5-Difluorophenylamino)-4-trifluoromethyl-pyrimidin-5-carboxylic acid cyclohexylmethyl-amide], the EC50 fell in the range of 20 to 300 nM and the Emax is above 50%.

Turning to `CC(C)c1cc(Nc2cccc(OC(F)(F)F)c2)ncc1C(=O)NCC1CCC1` [Example 682, N-Cyclobutylmethyl-4 isopropyl-6-(3-trifluoromethoxy-phenylamino)-nicotinamide], the Emax is above 50%.

For `O=C(c1cnc(Nc2cccc(Br)c2)nc1C(F)(F)F)N1CCOCC1` [Example 11, 1-[2-(3-Bromophenylamino)-4-trifluoromethylpyrimidin-5-yl]-1-morpholin-4-yl-methanone], the EC50 fell in the range of 20 to 300 nM and the Emax is above 50%.

Take `O=C(c1cnc(Nc2cccc(Cl)c2Cl)nc1C(F)(F)F)N1CCOCC1` [Example 6, 1-[2-(2,3-Dichlorophenylamino)-4-trifluoromethylpyrimidin-5-yl]-1-morpholin-4-yl-methanone]: the EC50 is 20 to 300 nM and the maximum response (Emax) was above 50%.

As for `O=C(NCC1CCCCC1)c1cnc(Nc2cc(Cl)cc(Cl)c2)nc1C(F)(F)F` [Example 18, 2-(3,5-Dichlorophenylamino)-4-trifluoromethylprimidine-5-carboxylic acid cyclohexylmethyl-amide], the EC50 lay within 20 to 300 nM and the Emax is above 50%.

`O=C(NCc1ccncc1)c1cnc(Nc2cccc(Br)c2)nc1C(F)(F)F` [Example 286, 2-(3-Bromophenylamino)-4-trifluoromethylpyrimidine-5-carboxylic acid (pyridin-4-ylmethyl)amide] gave an EC50 of 20 to 300 nM.

Take `O=C(NCC1CCC1)c1cnc(Nc2cccc(Cl)c2Cl)nc1C(F)(F)F` [Example 200, 2-(2,3-Dichlorophenylamino)-4-trifluoromethyl-pyrimidine-5-carboxylic acid cyclobutylmethyl-amide]: the EC50 was in the range of 20 to 300 nM and the Emax is above 50%.

Take `N#CCNC(=O)c1cnc(Nc2cccc(Cl)c2)nc1C(F)(F)F` [Example 26, 2-(3-Chloro-phenylamino)-4-trifluoromethyl-pyrimidine-5-carboxylic acid cyanomethyl-amide]: the EC50 lay in the range of 300 to 1000 nM and the Emax is above 50%.

Consider `O=C(NCC1CCC1)c1cnc(Nc2cc(F)cc(F)c2)nc1C(F)(F)F` [Example 192, 2-(3,5-Difluorophenylamino)-4-trifluoromethyl-pyrimidine-5-carboxylic acid cyclobutylmethyl-amide], for which the half-maximal effective concentration (EC50) lay in the range of 20 to 300 nM and the Emax is above 50%.

For the compound `N#Cc1ccc(CNC(=O)c2cnc(Nc3cccc(Cl)c3)nc2C(F)(F)F)cc1` [Example 271, 2-(3-Chlorophenylamino)-4-trifluoromethylpyrimidine-5-carboxylic acid 4-cyanobenzyl-amide], the EC50 was in the range of 20 to 300 nM and the Emax was above 50%.

For the compound `O=C(NCc1ccccc1)c1cnc(Nc2ccc(Cl)c(Cl)c2)nc1C(F)(F)F` [Example 274, 2-(3,4-Dichlorophenylamino)-4-trifluoromethylpyrimidine-5-carboxylic acid benzyl-amide], the EC50 fell in the range of 20 to 300 nM.

Consider `O=C(NCc1ccc(F)cc1)c1cnc(Nc2ccc(C(F)(F)F)c(F)c2)nc1C(F)(F)F` [Example 369, 2-(3-Fluoro-4-trifluoromethyl-phenylamino)-4-trifluoromethyl-pyrimidine-5-carboxylic acid 4-fluoro-benzylamide], for which the EC50 was in the range of 20 to 300 nM.

For the compound `O=C(NC1CCS(=O)(=O)CC1)c1cnc(Nc2cccc(Cl)c2Cl)nc1C(F)(F)F` [Example 82, 2-(2,3-Dichlorophenylamino)-4-trifluoromethyl-pyrimidine-5-carboxylic acid (1,1-dioxo-tetrahydro-2H-thiopyran-4-yl)-amide], the concentration giving a half-maximal response (EC50) fell in the range of 300 to 1000 nM and the Emax was above 50%.

On to `O=C(NC1CCC1)c1cnc(Nc2c(Cl)cccc2Cl)nc1C(F)(F)F` [Example 51, 2-(2,6-Dichlorophenylamino)-4-trifluoromethylpyrimidine-5-carboxylic acid N-cyclobutylamide], for which the EC50 is 20 to 300 nM and the maximal response (Emax) is above 50%.
